The results in this text go back to article PMC4418667 (PLoS ONE, 2015).

pIC50: −log10 of the molar value.

This experiment addresses T1, IKKβ (Homo sapiens, UniProt O14920).
T1 construct: gene IKBKB
T1 sequence (O14920 1-756): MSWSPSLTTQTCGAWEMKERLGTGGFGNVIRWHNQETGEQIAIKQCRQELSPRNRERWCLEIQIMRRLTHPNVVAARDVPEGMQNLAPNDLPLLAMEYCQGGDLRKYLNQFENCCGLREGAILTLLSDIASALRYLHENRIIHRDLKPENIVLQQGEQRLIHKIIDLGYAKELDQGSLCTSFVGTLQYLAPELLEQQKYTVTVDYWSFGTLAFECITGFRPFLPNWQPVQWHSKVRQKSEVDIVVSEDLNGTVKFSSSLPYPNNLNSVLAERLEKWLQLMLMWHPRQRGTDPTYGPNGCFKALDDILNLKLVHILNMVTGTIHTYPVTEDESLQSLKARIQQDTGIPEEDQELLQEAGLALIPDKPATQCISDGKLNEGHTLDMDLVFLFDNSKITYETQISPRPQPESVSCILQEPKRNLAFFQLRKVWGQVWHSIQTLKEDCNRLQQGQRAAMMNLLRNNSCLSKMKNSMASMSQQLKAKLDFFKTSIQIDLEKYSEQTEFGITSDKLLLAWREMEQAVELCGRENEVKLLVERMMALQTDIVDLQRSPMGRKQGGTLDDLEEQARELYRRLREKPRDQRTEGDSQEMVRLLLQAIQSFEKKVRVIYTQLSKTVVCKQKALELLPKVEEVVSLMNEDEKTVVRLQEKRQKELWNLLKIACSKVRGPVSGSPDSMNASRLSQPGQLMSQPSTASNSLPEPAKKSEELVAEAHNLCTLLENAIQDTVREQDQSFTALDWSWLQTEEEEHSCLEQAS
The experiment is described as follows: biochemical.

A word on the pIC50: it is the IC50 on a negative log10 scale, so that one unit is a factor of ten. A higher pIC50 goes with a small IC50. For the compound `C[C@H]1[C@H](C)CC[C@]2(C(=O)O)CC[C@]3(C)C(=CC[C@@H]4[C@@]5(C)C[C@@H](O)[C@H](O)[C@@](C)(CO)[C@@H]5CC[C@]43C)[C@H]12` [AA, Asiatic Acid], the pIC50 is 4.02.

As for `C[C@H]1[C@H](C)CC[C@]2(C(=O)O)CC[C@]3(C)C(=CC[C@@H]4[C@@]5(C)C[C@@H](O)[C@H](O)C(C)(C)[C@@H]5CC[C@]43C)[C@H]12` [CA, Corosolic Acid], the pIC50 is 4.05.

The compound `C[C@H]1[C@H](C)CC[C@]2(C(=O)O)CC[C@]3(C)C(=CC[C@@H]4[C@@]5(C)CC[C@H](O)C(C)(C)[C@@H]5CC[C@]43C)[C@H]12` [UA, Ursolic Acid] gave a pIC50 of 4.16.
